# Measured values reported in ChEMBL document CHEMBL5465560, “Selectivity Literature for EUbOPEN Chemogenomic Library” (2024).
# Experiments:
# [1] = target: T1, Casein kinase I isoform alpha-like (Homo sapiens) (UniProt Q8N752); experiment: Selectivity interaction (KinomeScan (DiscoverX)) EUB0000229b CSNK1A1L; details: at 10 µM
# T1 sequence (whole entry): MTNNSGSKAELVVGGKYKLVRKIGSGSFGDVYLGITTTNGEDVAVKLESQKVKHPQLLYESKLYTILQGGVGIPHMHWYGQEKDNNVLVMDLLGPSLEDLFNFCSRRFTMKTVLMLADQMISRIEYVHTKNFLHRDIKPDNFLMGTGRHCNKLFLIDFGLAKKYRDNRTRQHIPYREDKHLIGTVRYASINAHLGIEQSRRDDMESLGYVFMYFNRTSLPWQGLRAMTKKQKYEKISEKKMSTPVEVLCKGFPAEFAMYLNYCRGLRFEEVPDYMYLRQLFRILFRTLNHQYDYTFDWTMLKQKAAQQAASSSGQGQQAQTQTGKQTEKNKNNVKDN
# [2] = target: T2, Hormonally up-regulated neu tumor-associated kinase (Homo sapiens) (UniProt P57058); experiment: Selectivity interaction (KinomeScan (DiscoverX)) EUB0000595a HUNK; details: at 10 µM
# T2 sequence (whole entry): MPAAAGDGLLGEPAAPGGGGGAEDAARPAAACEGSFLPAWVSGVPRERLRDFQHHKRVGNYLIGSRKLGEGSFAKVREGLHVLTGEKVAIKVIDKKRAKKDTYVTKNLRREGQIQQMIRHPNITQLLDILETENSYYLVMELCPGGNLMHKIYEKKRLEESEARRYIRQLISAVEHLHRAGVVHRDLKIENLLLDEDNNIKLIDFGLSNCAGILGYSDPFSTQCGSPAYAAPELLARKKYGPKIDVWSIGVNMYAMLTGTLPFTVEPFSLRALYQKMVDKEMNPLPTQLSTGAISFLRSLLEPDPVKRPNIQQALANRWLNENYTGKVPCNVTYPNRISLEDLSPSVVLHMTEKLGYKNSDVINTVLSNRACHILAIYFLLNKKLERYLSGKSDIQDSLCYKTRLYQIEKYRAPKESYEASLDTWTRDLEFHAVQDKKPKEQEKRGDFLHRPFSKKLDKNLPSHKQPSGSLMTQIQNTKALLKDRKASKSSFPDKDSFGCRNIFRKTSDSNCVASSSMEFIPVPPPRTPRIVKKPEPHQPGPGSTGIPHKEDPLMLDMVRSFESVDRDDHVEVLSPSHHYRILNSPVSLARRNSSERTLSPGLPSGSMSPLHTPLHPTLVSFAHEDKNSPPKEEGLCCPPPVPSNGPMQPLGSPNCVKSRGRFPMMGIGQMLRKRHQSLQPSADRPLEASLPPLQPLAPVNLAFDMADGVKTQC
# [3] = target: T3, Alpha-1A adrenergic receptor (Homo sapiens) (UniProt P35348); experiment: Selectivity interaction (GPCR panel (PDSP screen)) EUB0001079a ADRA1A; details: at 10 µM
# T3 sequence (whole entry): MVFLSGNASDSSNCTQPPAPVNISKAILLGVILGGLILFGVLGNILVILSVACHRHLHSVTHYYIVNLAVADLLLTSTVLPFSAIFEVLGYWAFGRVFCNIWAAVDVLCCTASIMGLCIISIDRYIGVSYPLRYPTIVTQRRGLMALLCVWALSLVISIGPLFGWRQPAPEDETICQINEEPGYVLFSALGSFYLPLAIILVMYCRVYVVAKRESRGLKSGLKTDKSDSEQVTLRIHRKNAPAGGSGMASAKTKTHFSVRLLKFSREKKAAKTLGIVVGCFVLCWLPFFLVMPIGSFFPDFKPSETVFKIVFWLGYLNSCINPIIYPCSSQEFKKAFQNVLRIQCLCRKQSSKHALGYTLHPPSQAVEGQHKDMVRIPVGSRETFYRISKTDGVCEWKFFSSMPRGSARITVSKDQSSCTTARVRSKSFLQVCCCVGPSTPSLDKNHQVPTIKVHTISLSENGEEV
# [4] = target: T4, Protein kinase C epsilon type (Homo sapiens) (UniProt Q02156); experiment: Selectivity interaction (KinomeScan (DiscoverX)) EUB0001619a PRKCE; details: at 1 µM
# T4 sequence (whole entry): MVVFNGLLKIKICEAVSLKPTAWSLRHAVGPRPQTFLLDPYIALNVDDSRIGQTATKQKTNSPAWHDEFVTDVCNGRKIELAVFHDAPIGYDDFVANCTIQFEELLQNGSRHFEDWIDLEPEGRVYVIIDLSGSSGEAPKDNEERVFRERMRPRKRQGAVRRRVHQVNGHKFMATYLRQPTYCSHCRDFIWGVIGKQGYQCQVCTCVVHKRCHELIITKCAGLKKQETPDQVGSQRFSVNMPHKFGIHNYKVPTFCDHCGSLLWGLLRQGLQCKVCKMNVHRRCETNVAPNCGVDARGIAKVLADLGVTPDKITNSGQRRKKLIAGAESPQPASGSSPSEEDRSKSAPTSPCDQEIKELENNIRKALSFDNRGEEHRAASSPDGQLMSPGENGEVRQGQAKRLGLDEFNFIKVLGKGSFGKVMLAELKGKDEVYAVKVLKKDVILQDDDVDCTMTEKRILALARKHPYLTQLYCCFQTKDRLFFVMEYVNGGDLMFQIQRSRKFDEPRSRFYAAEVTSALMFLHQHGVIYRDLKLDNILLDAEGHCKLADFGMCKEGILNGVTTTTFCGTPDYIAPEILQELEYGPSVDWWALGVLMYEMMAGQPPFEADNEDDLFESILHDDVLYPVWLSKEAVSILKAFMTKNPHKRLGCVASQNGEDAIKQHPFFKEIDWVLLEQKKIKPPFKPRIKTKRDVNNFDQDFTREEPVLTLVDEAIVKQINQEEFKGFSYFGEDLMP
compound,measurement,setting,value
COc1cc(N(C)c2ccnc3ccc(C(F)(F)F)cc23)cc(OC)c1OC,% binding,[1],85%
COCC(=O)NC/C=C/c1ccc2ncnc(Nc3ccc(Oc4ccc(C)nc4)c(C)c3)c2c1 [CP-724714],% of control,[2],70%
Nc1cnc(N2CCc3cc(S(=O)(=O)Nc4c(F)cc(Cl)cc4F)cc(N4CCCC4=O)c32)nc1 [TP-020n],% of inhibition,[3],-15.7%
N#Cc1cccc(-c2c[nH]c3ncnc(N4CCOCC4)c23)c1,% of control,[4],12%
